{
  "source": "patent US20230083015A1",
  "about": "“SMALL MOLECULE DEGRADERS OF STAT3” (THE REGENTS OF THE UNIVERSITY OF MICHIGAN, priority 2019, published 2023)",
  "key": {"STAT1": {"molecular_target": "T1, STAT1 (Homo sapiens, UniProt P42224)", "T1 construct": "In vitro cultured cells or xenograft tumors were lysed; endogenous in cells; host or cells: MOLM-16", "T1 sequence (P42224 1-750)": "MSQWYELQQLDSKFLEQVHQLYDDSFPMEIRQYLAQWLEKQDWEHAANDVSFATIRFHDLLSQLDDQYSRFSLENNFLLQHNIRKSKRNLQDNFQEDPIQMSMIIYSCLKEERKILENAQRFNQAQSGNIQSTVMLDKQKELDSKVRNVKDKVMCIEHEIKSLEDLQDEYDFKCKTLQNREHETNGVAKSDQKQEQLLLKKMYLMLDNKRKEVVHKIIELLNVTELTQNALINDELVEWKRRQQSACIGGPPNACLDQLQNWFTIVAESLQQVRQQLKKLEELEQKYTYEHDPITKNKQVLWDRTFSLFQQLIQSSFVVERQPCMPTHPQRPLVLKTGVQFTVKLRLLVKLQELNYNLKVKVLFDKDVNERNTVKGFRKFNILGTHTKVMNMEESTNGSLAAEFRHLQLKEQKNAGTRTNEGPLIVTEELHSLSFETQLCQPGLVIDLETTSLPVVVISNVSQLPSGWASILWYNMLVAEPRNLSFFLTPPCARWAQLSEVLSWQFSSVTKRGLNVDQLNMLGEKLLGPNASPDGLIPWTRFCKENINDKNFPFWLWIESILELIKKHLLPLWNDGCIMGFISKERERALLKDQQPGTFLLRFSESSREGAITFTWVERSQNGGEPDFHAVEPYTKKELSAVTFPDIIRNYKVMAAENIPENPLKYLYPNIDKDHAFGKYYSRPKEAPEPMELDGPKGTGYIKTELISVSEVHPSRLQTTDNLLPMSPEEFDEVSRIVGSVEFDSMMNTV", "experiment": "Estimated DC50 for STAT1 degradation in MOLM-16 cells (immunoblotting)", "assay_type": "cell-based", "conditions": "MOLM-16, 4 h; read-out: Estimated DC50 STAT1", "method": "(§1) FIG. 62 is a series of four images showing the fluorescent immunoblotting analysis of STAT1 and STAT3 protein in Molm-16 cells after treatment for 4 h with Cpd. Nos. 331, 296, 361, 362, 363, 364, 365, 366, and 367 at the concentrations indicated.\n(§2) In vitro cultured cells or xenograft tumors were lysed 1× Cell Lysis Buffer (Cell Signaling Technology, #9803), resolved by SDS-PAGE NuPAGE gel (Thermo Fisher Scientific), and transferred to a PVDF membrane (Bio Rad). For chemiluminescence immunoblotting, membranes were blocked for 1 h using 5% Blotting-Grade Blocker (#1706404, Bio Rad) in 1× Tris-buffered saline with Tween 20 (TBST, Pierce). Antibodies used were: rabbit mAbs for STAT3 (Cell Signaling Technology, #4368, #12640) and p-STAT3 (Y705) (Cell Signaling Technology, #9245, #52075). HRP conjugated goat anti-rabbit IgG (H+L) (#A27036) secondary antibodies was from Thermo Fisher Scientific. GAPDH (Santa Cruz Technology, sc-47724HRP) and actin (Santa Cruz Technology, sc-8432HRP, sc-47778HRP) were loading controls. For fluorescent immunoblotting, membranes were blocked using Odyssey TBS Blocker Buffer (LI-COR). IRDye 680RD and 800CW Dye-labeled secondary antibodies (LI-COR) were used. The washed membranes were scanned using Odyssey CLx imager (LI-COR). The intensity of Western blot signaling was quantitated using the Odyssey software.\n(§3) The estimated DC50 in MOLM-16 cells of representative Compounds of the Disclosure against STAT3 and STAT1 is provide in Table 5."}, "STAT3": {"molecular_target": "STAT3 (Homo sapiens, UniProt P40763)", "sequence (P40763 whole entry)": "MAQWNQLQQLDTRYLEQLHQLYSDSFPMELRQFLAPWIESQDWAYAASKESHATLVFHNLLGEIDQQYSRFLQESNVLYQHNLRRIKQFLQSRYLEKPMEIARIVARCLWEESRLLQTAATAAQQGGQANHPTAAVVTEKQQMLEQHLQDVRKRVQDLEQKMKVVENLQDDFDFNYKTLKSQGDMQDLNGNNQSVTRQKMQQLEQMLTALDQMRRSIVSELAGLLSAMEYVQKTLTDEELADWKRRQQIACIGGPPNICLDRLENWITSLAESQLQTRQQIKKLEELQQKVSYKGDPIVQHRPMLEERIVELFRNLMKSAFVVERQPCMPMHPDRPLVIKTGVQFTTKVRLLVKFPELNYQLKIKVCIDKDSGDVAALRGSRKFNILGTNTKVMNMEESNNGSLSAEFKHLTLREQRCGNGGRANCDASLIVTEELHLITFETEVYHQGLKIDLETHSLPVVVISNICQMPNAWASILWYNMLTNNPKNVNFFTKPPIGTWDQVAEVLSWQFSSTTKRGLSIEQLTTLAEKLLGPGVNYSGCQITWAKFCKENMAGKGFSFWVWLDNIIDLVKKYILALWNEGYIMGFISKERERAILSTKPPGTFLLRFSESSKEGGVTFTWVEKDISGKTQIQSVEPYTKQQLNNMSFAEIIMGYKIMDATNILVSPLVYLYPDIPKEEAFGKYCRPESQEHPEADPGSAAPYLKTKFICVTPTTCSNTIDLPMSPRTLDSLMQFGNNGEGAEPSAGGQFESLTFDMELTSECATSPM", "experiment": "Estimated DC50 for STAT3 degradation in MOLM-16 cells (immunoblotting)", "assay_type": "cell-based", "parameters": "In vitro cultured cells or xenograft tumors were lysed; endogenous in cells; host or cells: MOLM-16", "conditions": "MOLM-16, 4 h; read-out: Estimated DC50 STAT3", "method": "as §1, §2, §3"}},
  "data": [
    {"smiles": "CCN1CC[C@H]2CC[C@@H](C(=O)N[C@@H](CCC(N)=O)C(=O)N[C@@H](Cc3ccc(C(=O)NC4CCOCC4)cc3)C(=O)N3CCC(CCC#Cc4cccc5c4CN(C4CCC(=O)NC4=O)C5=O)CC3)N2C(=O)[C@@H](NC(=O)c2cc3cc(C(F)(F)P(=O)(O)O)ccc3s2)C1", "note": "(stereo partly drawn) [Cpd. No. 359, ((2-(((5S,8S,10aR)-8-(((2S)-5-amino-1-(((2S)-1-(4-(4-(2-(2,6-dioxopiperidin-3-yl)-1-oxoisoindolin-4-yl)but-3-yn-1-yl)piperidin-1-yl)-1-oxo-3-(4-((tetrahydro-2H-pyran-4-yl)carbamoyl)phenyl)propan-2-yl)amino)-1,5-dioxopentan-2-yl)carbamoyl)-3-ethyl-6-oxodecahydropyrrolo[1,2-a][1,5]diazocin-5-yl)carbamoyl)benzo[b]thiophen-5-yl)difluoromethyl)phosphonic Acid]", "values": [
      {"measurement": "DC50", "setting": "STAT1", "result": "> 1000", "unit": "nM"},
      {"measurement": "DC50", "setting": "STAT3", "result": 1000, "unit": "nM"}
    ]},
    {"smiles": "CCN1CC[C@H]2CC[C@@H](C(=O)N[C@@H](CCC(N)=O)C(=O)N[C@@H](Cc3ccc(C(=O)NCC4CCN(C)CC4)cc3)C(=O)N3CCC(CCC#Cc4cccc5c4CN(C4CCC(=O)NC4=O)C5=O)CC3)N2C(=O)[C@@H](NC(=O)c2cc3cc(C(F)(F)P(=O)(O)O)ccc3s2)C1", "note": "(stereo partly drawn) [Cpd. No. 360, ((2-(((5S,8S,10aR)-8-(((2S)-5-amino-1-(((2S)-1-(4-(4-(2-(2,6-dioxopiperidin-3-yl)-1-oxoisoindolin-4-yl)but-3-yn-1-yl)piperidin-1-yl)-3-(4-(((1-methylpiperidin-4-yl)methyl)carbamoyl)phenyl)-1-oxopropan-2-yl)amino)-1,5-dioxopentan-2-yl)carbamoyl)-3-ethyl-6-oxodecahydropyrrolo [1,2-a][1,5]diazocin-5-yl)carbamoyl)benzo [b]thiophen-5-yl)difluoromethyl) phosphonic acid]", "values": [
      {"measurement": "DC50", "setting": "STAT1", "result": "> 1000", "unit": "nM"},
      {"measurement": "DC50", "setting": "STAT3", "result": "> 1000", "unit": "nM"}
    ]},
    {"smiles": "COC(=O)N1CC[C@H]2CC[C@@H](C(=O)N[C@@H](CCC(N)=O)C(=O)N[C@@H](Cc3ccc(C(C)(C)C)cc3)C(=O)N3CCC(CCC#Cc4cccc5c4CN(C4CCC(=O)NC4=O)C5=O)CC3)N2C(=O)[C@@H](NC(=O)c2cc3cc(C(F)(F)P(=O)(O)O)ccc3s2)C1", "note": "(stereo partly drawn) [Cpd. No. 361, ((2-(((5S,8S,10aR)-8-(((2S)-5-amino-1-(((2S)-3-(4-(tert-butyl)phenyl)-1-(4-(4-(2-(2,6-dioxopiperidin-3-yl)-1-oxoisoindolin-4-yl)but-3-yn-1-yl)piperidin-1-yl)-1-oxopropan-2-yl)amino)-1,5-dioxopentan-2-yl)carbamoyl)-3-(methoxycarbonyl)-6-oxodecahydropyrrolo[1,2-a][1,5]diazocin-5-yl)carbamoyl)benzo[b]thiophen-5-yl)difluoromethyl) phosphonic acid]", "values": [
      {"measurement": "DC50", "setting": "STAT1", "result": 250, "unit": "nM"},
      {"measurement": "DC50", "setting": "STAT3", "result": "< 250", "unit": "nM"}
    ]},
    {"smiles": "CC(C)(C)c1ccc(C[C@H](NC(=O)[C@H](CCC(N)=O)NC(=O)[C@@H]2CC[C@@H]3CCN(CC(F)F)C[C@H](NC(=O)c4cc5cc(C(F)(F)P(=O)(O)O)ccc5s4)C(=O)N32)C(=O)N2CCC(CCC#Cc3cccc4c3CN(C3CCC(=O)NC3=O)C4=O)CC2)cc1", "note": "(stereo partly drawn) [Cpd. No. 362, ((2-(((5S,8S,10aR)-8-(((2S)-5-amino-1-(((2S)-3-(4-(tert-butyl)phenyl)-1-(4-(4-(2-(2,6-dioxopiperidin-3-yl)-1-oxoisoindolin-4-yl)but-3-yn-1-yl)piperidin-1-yl)-1-oxopropan-2-yl)amino)-1,5-dioxopentan-2-yl)carbamoyl)-3-(2,2-difluoroethyl)-6-oxodecahydropyrrolo[1,2-a][1,5]diazocin-5-yl)carbamoyl)benzo[b]thiophen-5-yl)difluoromethyl) phosphonic acid]", "values": [
      {"measurement": "DC50", "setting": "STAT1", "result": "< 250", "unit": "nM"},
      {"measurement": "DC50", "setting": "STAT3", "result": "< 250", "unit": "nM"}
    ]}
  ]
}
